Test results from ChEMBL document CHEMBL1201862, “PubChem BioAssay data set” (2004).
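Values below derive from 48-hour exposures of cells grown in 96-well plates, with endpoints linearly interpolated between the two concentrations bracketing the appropriate inhibition level. The concentration for 50% growth inhibition is given as GI50.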 Active and inactive are the calls of the source. Rule as the data show it: active = GI50 up to about 1.1 µM and inactive = higher.

Assays:
Assay in all cases: NCI-60 cell line screen, 48 h
[1] = system: TK-10
[2] = system: LXFL 529
[3] = system: K562
[4] = system: NCI-H226
[5] = system: KM-20L2
[6] = system: COLO 205
[7] = system: ACHN
[8] = system: SNB-75
[9] = system: Malme-3M
[10] = system: HL-60
[11] = system: NCI-H522
[12] = system: OVCAR-3
[13] = system: UO-31
[14] = system: UACC-62
[15] = system: EKVX
[16] = system: DLD-1
[17] = system: NCI-H23
[18] = system: 786-0
[19] = system: SK-MEL-5
[20] = system: CAKI-1

SMILES | GI50 [1] | GI50 [2] | GI50 [3] | GI50 [4] | GI50 [5] | GI50 [6] | GI50 [7] | GI50 [8] | GI50 [9] | GI50 [10] | GI50 [11] | GI50 [12] | GI50 [13] | GI50 [14] | GI50 [15] | GI50 [16] | GI50 [17] | GI50 [18] | GI50 [19] | GI50 [20]
O=C(CC1(O)C(=O)Nc2ccc([N+](=O)[O-])cc21)c1ccc2ccccc2c1 (stereo unspecified) | > 100 µM (inactive) | > 100 µM (inactive) | > 100 µM (inactive) | > 100 µM (inactive) | > 100 µM (inactive) | > 100 µM (inactive) | > 100 µM (inactive) | > 100 µM (inactive) | > 100 µM (inactive) | > 100 µM (inactive) | 65.6 µM (inactive) | > 100 µM (inactive) | > 100 µM (inactive) | > 100 µM (inactive) | > 100 µM (inactive) | > 100 µM (inactive) | > 100 µM (inactive) | > 100 µM (inactive) |  | 
OC1=CN=C(C2CC2)Oc2ccccc21 | > 100 µM (inactive) | > 100 µM (inactive) | 84.9 µM (inactive) | 15.5 µM (inactive) | > 100 µM (inactive) | > 100 µM (inactive) | > 100 µM (inactive) | > 100 µM (inactive) | > 100 µM (inactive) | > 100 µM (inactive) |  | > 100 µM (inactive) | 25.7 µM (inactive) | 98.6 µM (inactive) | > 100 µM (inactive) | > 100 µM (inactive) | > 100 µM (inactive) | > 100 µM (inactive) | > 100 µM (inactive) | 
C/C(CCn1[nH]c(=O)ccc1=O)=N\OCCCc1ccccc1 | > 100 µM (inactive) | > 100 µM (inactive) | > 100 µM (inactive) | > 100 µM (inactive) | > 100 µM (inactive) |  | > 100 µM (inactive) | > 100 µM (inactive) | > 100 µM (inactive) | > 100 µM (inactive) |  | > 100 µM (inactive) | > 100 µM (inactive) | > 100 µM (inactive) | > 100 µM (inactive) | > 100 µM (inactive) | > 100 µM (inactive) | > 100 µM (inactive) | > 100 µM (inactive) | > 100 µM (inactive)
CCCCCCCCCCCCCCCCNc1cccc2ccccc12 | > 100 µM (inactive) | > 100 µM (inactive) | > 100 µM (inactive) | > 100 µM (inactive) | > 100 µM (inactive) | > 100 µM (inactive) | > 100 µM (inactive) | > 100 µM (inactive) | > 100 µM (inactive) | > 100 µM (inactive) | > 100 µM (inactive) | > 100 µM (inactive) | > 100 µM (inactive) | > 100 µM (inactive) | > 100 µM (inactive) | > 100 µM (inactive) | > 100 µM (inactive) | > 100 µM (inactive) |  | 
CSc1ccc(/C=C2\CN(C)C/C(=C\c3ccc(SC)cc3)C2=O)cc1 | 56.6 µM (inactive) | 5.22 µM (inactive) | 22.2 µM (inactive) | > 100 µM (inactive) | 32.1 µM (inactive) | 21.2 µM (inactive) | 40.6 µM (inactive) | 12.5 µM (inactive) | > 100 µM (inactive) | 21.1 µM (inactive) |  | 13.8 µM (inactive) | > 100 µM (inactive) | 55.8 µM (inactive) | 81.3 µM (inactive) | 11.5 µM (inactive) | 4.52 µM (inactive) | 54.1 µM (inactive) | 48.8 µM (inactive) | > 100 µM (inactive)
Fc1ccc(/N=C2C=C/C(=N\c3ccc(F)cc3)c3ccccc3\2)cc1 | > 100 µM (inactive) | > 100 µM (inactive) | > 100 µM (inactive) | 77.4 µM (inactive) | > 100 µM (inactive) | > 100 µM (inactive) | > 100 µM (inactive) | > 100 µM (inactive) | > 100 µM (inactive) | > 100 µM (inactive) | > 100 µM (inactive) | > 100 µM (inactive) | > 100 µM (inactive) | 9.89 µM (inactive) | 33.9 µM (inactive) | > 100 µM (inactive) | 72.1 µM (inactive) | > 100 µM (inactive) | > 100 µM (inactive) | 
CC(=O)N/C(=C\c1ccc(/C=C(\NC(C)=O)c2nc3cc(Cl)ccc3[nH]2)cc1)c1nc2ccccc2[nH]1 | > 100 µM (inactive) | > 100 µM (inactive) | > 100 µM (inactive) | > 100 µM (inactive) | > 100 µM (inactive) | > 100 µM (inactive) | > 100 µM (inactive) | > 100 µM (inactive) | > 100 µM (inactive) |  | > 100 µM (inactive) | > 100 µM (inactive) |  | > 100 µM (inactive) | > 100 µM (inactive) | > 100 µM (inactive) | > 100 µM (inactive) | > 100 µM (inactive) | > 100 µM (inactive) | > 100 µM (inactive)
CS/C(=N\c1ccc([N+](=O)[O-])cc1C#N)NC(=O)c1ccccc1 | > 100 µM (inactive) | > 100 µM (inactive) | > 100 µM (inactive) | 33.9 µM (inactive) | > 100 µM (inactive) | > 100 µM (inactive) | > 100 µM (inactive) | 28.4 µM (inactive) | > 100 µM (inactive) | > 100 µM (inactive) |  | > 100 µM (inactive) |  | > 100 µM (inactive) | 94.8 µM (inactive) | > 100 µM (inactive) | > 100 µM (inactive) | > 100 µM (inactive) | > 100 µM (inactive) | 94.2 µM (inactive)
CN(C)CC(C)(C)C(/C=C/c1ccccc1)=N\Nc1ccccc1 | 0.162 µM (active) | 0.197 µM (active) | 0.238 µM (active) |  | 0.0217 µM (active) | 3.19 µM (inactive) | 0.132 µM (active) | 14.6 µM (inactive) | 10.4 µM (inactive) | 1.16 µM (inactive) | 6.14 µM (inactive) | 1.44 µM (inactive) | 0.0836 µM (active) | 0.0527 µM (active) | 0.378 µM (active) | 0.199 µM (active) | 10.6 µM (inactive) | 0.457 µM (active) | 6.64 µM (inactive) | 
CC1OC(=O)N2CCC=CC12 (stereo unspecified) | > 100 µM (inactive) | > 100 µM (inactive) | > 100 µM (inactive) | > 100 µM (inactive) | > 100 µM (inactive) | > 100 µM (inactive) | > 100 µM (inactive) | > 100 µM (inactive) | > 100 µM (inactive) |  | > 100 µM (inactive) | > 100 µM (inactive) | > 100 µM (inactive) | > 100 µM (inactive) | > 100 µM (inactive) | > 100 µM (inactive) | > 100 µM (inactive) | > 100 µM (inactive) | > 100 µM (inactive) | 
CCOC(=O)/C=C1\Nc2ccccc2-n2nnnc21 | > 100 µM (inactive) | > 100 µM (inactive) | > 100 µM (inactive) | > 100 µM (inactive) | > 100 µM (inactive) | > 100 µM (inactive) | > 100 µM (inactive) | > 100 µM (inactive) | > 100 µM (inactive) | > 100 µM (inactive) |  | > 100 µM (inactive) | > 100 µM (inactive) | > 100 µM (inactive) | > 100 µM (inactive) | > 100 µM (inactive) | > 100 µM (inactive) | > 100 µM (inactive) | > 100 µM (inactive) | > 100 µM (inactive)
CC(C)C1CC(O)O[C@@H]([C@@H](C)[C@H]2CC(=O)[C@@H]3[C@@H]4[C@@H](O)[C@H](O)[C@H]5[C@@H](O)[C@H](O)CC[C@]5(C)[C@H]4CC[C@]23C)C1 (stereo partly specified) | 38.3 µM (inactive) | > 100 µM (inactive) | > 100 µM (inactive) | > 100 µM (inactive) | > 100 µM (inactive) | > 100 µM (inactive) | 24.4 µM (inactive) | 22.2 µM (inactive) | 77.4 µM (inactive) | > 100 µM (inactive) | 70.1 µM (inactive) | > 100 µM (inactive) | > 100 µM (inactive) | 79.4 µM (inactive) | 66.1 µM (inactive) | > 100 µM (inactive) | 36 µM (inactive) | 48 µM (inactive) | 52.2 µM (inactive) | 
O=C1NC(=O)C2C(=O)NC(=O)C1C2Cc1ccco1 (stereo unspecified) | > 100 µM (inactive) |  | > 100 µM (inactive) | > 100 µM (inactive) | > 100 µM (inactive) | > 100 µM (inactive) | > 100 µM (inactive) | > 100 µM (inactive) | > 100 µM (inactive) | > 100 µM (inactive) | > 100 µM (inactive) | > 100 µM (inactive) | > 100 µM (inactive) | > 100 µM (inactive) | > 100 µM (inactive) | > 100 µM (inactive) | > 100 µM (inactive) | > 100 µM (inactive) | > 100 µM (inactive) | > 100 µM (inactive)
COC(=O)C1C2C=CC(C2)N1[C@@H](C)c1ccccc1 (stereo partly specified) | > 100 µM (inactive) | > 100 µM (inactive) | > 100 µM (inactive) |  | > 100 µM (inactive) | > 100 µM (inactive) | > 100 µM (inactive) | > 100 µM (inactive) | > 100 µM (inactive) | > 100 µM (inactive) | > 100 µM (inactive) | > 100 µM (inactive) | > 100 µM (inactive) | > 100 µM (inactive) | > 100 µM (inactive) | > 100 µM (inactive) | > 100 µM (inactive) | > 100 µM (inactive) | > 100 µM (inactive) | > 100 µM (inactive)
CCOC(=O)C1=C(C)C2C3C(=O)OC(=O)C3C1(C)C1C(=O)OC(=O)C21 (stereo unspecified) | > 100 µM (inactive) | > 100 µM (inactive) | > 100 µM (inactive) | > 100 µM (inactive) | > 100 µM (inactive) | > 100 µM (inactive) | > 100 µM (inactive) | > 100 µM (inactive) | > 100 µM (inactive) | > 100 µM (inactive) |  | > 100 µM (inactive) | > 100 µM (inactive) | > 100 µM (inactive) | > 100 µM (inactive) | > 100 µM (inactive) | > 100 µM (inactive) | > 100 µM (inactive) | > 100 µM (inactive) | 
